Assay results from PubChem BioAssay AID1963837 (Molecular Pharmacology Branch, DTP, NCI, 2024).

System: 843126-344-R-J1-PDC complex spheroid viability
Assay: Anticancer human tumor 843126-344-R-J1-PDC patient-derived melanoma cell line growth inhibition [POLQ]
Details: for IC50: curve of first compound; for viability, T/C: stronger effect = lower value
Summary of the method: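 Three-cell-type spheroids modelling solid tumor plus stroma served as the readout system; POL inhibitors were tested individually and in combination, concentration ranges set by clinical Cmax where known.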

[1] = second compound 0.0316 µM, first compound 0.0316 µM
[2] = second compound 0.0316 µM, first compound 0.1 µM
[3] = second compound 0.0316 µM, first compound 0.316 µM
[4] = second compound 0.0316 µM, first compound 1 µM
[5] = second compound 0.0316 µM, first compound 3.16 µM
[6] = second compound 0.0316 µM, first compound 10 µM
[7] = second compound 0.1 µM, first compound 0.0316 µM
[8] = second compound 0.1 µM, first compound 0.1 µM
[9] = second compound 0.1 µM, first compound 0.316 µM
[10] = second compound 0.1 µM, first compound 1 µM
[11] = second compound 0.1 µM, first compound 3.16 µM
[12] = second compound 0.1 µM, first compound 10 µM
[13] = second compound 0.316 µM, first compound 0.0316 µM
[14] = second compound 0.316 µM, first compound 0.1 µM
[15] = second compound 0.316 µM, first compound 0.316 µM
[16] = second compound 0.316 µM, first compound 1 µM
[17] = second compound 0.316 µM, first compound 3.16 µM
[18] = second compound 0.316 µM, first compound 10 µM
[19] = second compound 1 µM, first compound 0.0316 µM
[20] = second compound 1 µM, first compound 0.1 µM
[21] = second compound 1 µM, first compound 0.316 µM
[22] = second compound 1 µM, first compound 1 µM
[23] = second compound 1 µM, first compound 3.16 µM
[24] = second compound 1 µM, first compound 10 µM
[25] = second compound 3.16 µM, first compound 0.0316 µM
[26] = second compound 3.16 µM, first compound 0.1 µM
[27] = second compound 3.16 µM, first compound 0.316 µM
[28] = second compound 3.16 µM, first compound 1 µM
[29] = second compound 3.16 µM, first compound 3.16 µM
[30] = second compound 3.16 µM, first compound 10 µM
[31] = second compound 10 µM, first compound 0.0316 µM
[32] = second compound 10 µM, first compound 0.1 µM
[33] = second compound 10 µM, first compound 0.316 µM
[34] = second compound 10 µM, first compound 1 µM
[35] = second compound 10 µM, first compound 3.16 µM
[36] = second compound 10 µM, first compound 10 µM
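Throughout, for viability, T/C: spheroids exposed to drugs for seven days before readout.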

## COc1cccc2c1C(=O)c1c(O)c3c(c(O)c1C2=O)CC(O)(C(=O)CO)CC3OC1CC(N)C(O)C(C)O1 (stereo not drawn) + Cc1cccc(N(C)C(=O)C2C(O)CCN2c2nc(C)cc(C(F)(F)F)c2C#N)c1
Second compound 0.0316 µM
  IC50: 178 nM
Second compound 0.1 µM
  IC50: 245 nM
Second compound 0.316 µM
  IC50: 168 nM
Second compound 1 µM
  IC50: 204 nM
Second compound 3.16 µM
  IC50: 184 nM
Second compound 10 µM
  IC50: 152 nM
[1]
  viability, T/C: 92.8%
[2]
  viability, T/C: 62.1%
[3]
  viability, T/C: 39.9%
[4]
  viability, T/C: 11%
[5]
  viability, T/C: 3.5%
[6]
  viability, T/C: 3.68%
[7]
  viability, T/C: 87.9%
[8]
  viability, T/C: 72.7%
[9]
  viability, T/C: 45.2%
[10]
  viability, T/C: 9.74%
[11]
  viability, T/C: 4.9%
[12]
  viability, T/C: 3.68%
[13]
  viability, T/C: 92.7%
[14]
  viability, T/C: 60.7%
[15]
  viability, T/C: 38.6%
[16]
  viability, T/C: 10.6%
[17]
  viability, T/C: 3.96%
[18]
  viability, T/C: 3.01%
[19]
  viability, T/C: 90.8%
[20]
  viability, T/C: 69.5%
[21]
  viability, T/C: 39.7%
[22]
  viability, T/C: 7.4%
[23]
  viability, T/C: 3.66%
[24]
  viability, T/C: 3.67%
[25]
  viability, T/C: 74.3%
[26]
  viability, T/C: 64%
[27]
  viability, T/C: 37.2%
[28]
  viability, T/C: 5.9%
[29]
  viability, T/C: 3.46%
[30]
  viability, T/C: 3.96%
[31]
  viability, T/C: 68.8%
[32]
  viability, T/C: 63.3%
[33]
  viability, T/C: 26.3%
[34]
  viability, T/C: 4.4%
[35]
  viability, T/C: 3.99%
[36]
  viability, T/C: 3.14%

## Nc1ccn(C2OC(CO)C(O)C2(F)F)c(=O)n1 (stereo not drawn) + Cc1cccc(N(C)C(=O)C2C(O)CCN2c2nc(C)cc(C(F)(F)F)c2C#N)c1
Second compound 0.0316 µM
  IC50: < 31.6 nM
Second compound 0.1 µM
  IC50: < 31.6 nM
Second compound 0.316 µM
  IC50: < 31.6 nM
Second compound 1 µM
  IC50: < 31.6 nM
Second compound 3.16 µM
  IC50: < 31.6 nM
Second compound 10 µM
  IC50: < 31.6 nM
[1]
  viability, T/C: 47.1%
[2]
  viability, T/C: 50.2%
[3]
  viability, T/C: 30.6%
[4]
  viability, T/C: 45.5%
[5]
  viability, T/C: 42.4%
[6]
  viability, T/C: 43%
[7]
  viability, T/C: 48.9%
[8]
  viability, T/C: 44%
[9]
  viability, T/C: 40.9%
[10]
  viability, T/C: 51.4%
[11]
  viability, T/C: 44.5%
[12]
  viability, T/C: 32.9%
[13]
  viability, T/C: 42.3%
[14]
  viability, T/C: 45.2%
[15]
  viability, T/C: 37.4%
[16]
  viability, T/C: 44.8%
[17]
  viability, T/C: 43.2%
[18]
  viability, T/C: 38.3%
[19]
  viability, T/C: 37.9%
[20]
  viability, T/C: 44.5%
[21]
  viability, T/C: 37.6%
[22]
  viability, T/C: 47.7%
[23]
  viability, T/C: 35.9%
[24]
  viability, T/C: 41.5%
[25]
  viability, T/C: 38.7%
[26]
  viability, T/C: 43.6%
[27]
  viability, T/C: 44%
[28]
  viability, T/C: 49.3%
[29]
  viability, T/C: 34.9%
[30]
  viability, T/C: 36.6%
[31]
  viability, T/C: 40.6%
[32]
  viability, T/C: 41.6%
[33]
  viability, T/C: 40.7%
[34]
  viability, T/C: 45.1%
[35]
  viability, T/C: 43.5%
[36]
  viability, T/C: 37.8%

## O=C(c1cc(Cc2n[nH]c(=O)c3ccccc23)ccc1F)N1CCN(C(=O)C2CC2)CC1 + Cc1cccc(N(C)C(=O)C2C(O)CCN2c2nc(C)cc(C(F)(F)F)c2C#N)c1
Second compound 0.0316 µM
  IC50: > 10000 nM
Second compound 0.1 µM
  IC50: > 10000 nM
Second compound 0.316 µM
  IC50: > 10000 nM
Second compound 1 µM
  IC50: > 10000 nM
Second compound 3.16 µM
  IC50: > 10000 nM
Second compound 10 µM
  IC50: > 10000 nM
[1]
  viability, T/C: 116%
[2]
  viability, T/C: 99.2%
[3]
  viability, T/C: 84.3%
[4]
  viability, T/C: 82.3%
[5]
  viability, T/C: 91.9%
[6]
  viability, T/C: 74.2%
[7]
  viability, T/C: 110%
[8]
  viability, T/C: 98.7%
[9]
  viability, T/C: 92.7%
[10]
  viability, T/C: 90.9%
[11]
  viability, T/C: 93.7%
[12]
  viability, T/C: 67.1%
[13]
  viability, T/C: 95.7%
[14]
  viability, T/C: 78.8%
[15]
  viability, T/C: 89.4%
[16]
  viability, T/C: 91.5%
[17]
  viability, T/C: 82%
[18]
  viability, T/C: 75.7%
[19]
  viability, T/C: 85.4%
[20]
  viability, T/C: 97.8%
[21]
  viability, T/C: 96.9%
[22]
  viability, T/C: 97.8%
[23]
  viability, T/C: 84.1%
[24]
  viability, T/C: 77.6%
[25]
  viability, T/C: 91.5%
[26]
  viability, T/C: 83.3%
[27]
  viability, T/C: 88.8%
[28]
  viability, T/C: 89.6%
[29]
  viability, T/C: 84.2%
[30]
  viability, T/C: 71.2%
[31]
  viability, T/C: 83.8%
[32]
  viability, T/C: 102%
[33]
  viability, T/C: 85.8%
[34]
  viability, T/C: 92.1%
[35]
  viability, T/C: 103%
[36]
  viability, T/C: 78.8%

## O=c1[nH]cc(F)c(=O)[nH]1 + Cc1cccc(N(C)C(=O)C2C(O)CCN2c2nc(C)cc(C(F)(F)F)c2C#N)c1
Second compound 0.0316 µM
  IC50: > 10000 nM
Second compound 0.1 µM
  IC50: > 10000 nM
Second compound 0.316 µM
  IC50: > 10000 nM
Second compound 1 µM
  IC50: > 10000 nM
Second compound 3.16 µM
  IC50: > 10000 nM
Second compound 10 µM
  IC50: > 10000 nM
[1]
  viability, T/C: 101%
[2]
  viability, T/C: 112%
[3]
  viability, T/C: 104%
[4]
  viability, T/C: 101%
[5]
  viability, T/C: 87.3%
[6]
  viability, T/C: 79.3%
[7]
  viability, T/C: 99.8%
[8]
  viability, T/C: 98.3%
[9]
  viability, T/C: 96.5%
[10]
  viability, T/C: 97.5%
[11]
  viability, T/C: 81.5%
[12]
  viability, T/C: 93.2%
[13]
  viability, T/C: 105%
[14]
  viability, T/C: 108%
[15]
  viability, T/C: 96.7%
[16]
  viability, T/C: 82.2%
[17]
  viability, T/C: 110%
[18]
  viability, T/C: 103%
[19]
  viability, T/C: 101%
[20]
  viability, T/C: 88.6%
[21]
  viability, T/C: 107%
[22]
  viability, T/C: 110%
[23]
  viability, T/C: 113%
[24]
  viability, T/C: 96.5%
[25]
  viability, T/C: 99.3%
[26]
  viability, T/C: 94.5%
[27]
  viability, T/C: 113%
[28]
  viability, T/C: 95.8%
[29]
  viability, T/C: 103%
[30]
  viability, T/C: 91.5%
[31]
  viability, T/C: 91.1%
[32]
  viability, T/C: 85.8%
[33]
  viability, T/C: 104%
[34]
  viability, T/C: 102%
[35]
  viability, T/C: 111%
[36]
  viability, T/C: 90%
